From patent publication US5464617A, “β-lactam compounds” (Hoffmann-La Roche Inc., priority 1994, dated 1995)
In brackets after ≈: the same amount, converted by molar mass. Counter-ions that a name gives are not always drawn.

What was measured:
[1] = system: Citrobacter freundii 1982; assay: MIC in vitro of a 1:4 combination of ceftriaxone with a compound of formula I (Test D); type: cell-based; conditions: 1:4 combination of ceftriaxone with the compound; for MIC C. freundii 1982: Table 2; for MIC C. freundii 1982 (D): Table 4, test D
Description: The minimum inhibitory concentration in vitro ([…]) of a 1:4 combination of ceftriaxone with a compound of formula I against Citrobacter freundii 1982 was measured and compiled in Table 2 hereinafter.

E. coli 1346 = assay: Antibacterial activity of the products per se, serial dilution method in liquid medium (Test E); type: cell-based; conditions: Table 3; product per se, liquid medium
Excerpt: The antibacterial activity of the products per se is illustrated on the basis of Table 3 hereinafter, the minimum inhibitory concentration […] in vitro against E. coli 1346 being determined using the serial dilution method in liquid medium: […]

Row | MIC C. freundii 1982 [1] [µg/mL] | Compound | further results
1 | 0.06 | Cn1nnnc1SC1=C(C(=O)O)N2C(=O)[C@@H]3[C@H]2[C@H](C1)CN3C(=O)NC1CCSC1=O (mixture of isomers) [3(f), (1aS,3aR,6bR)-5-(1-Methyl-1H-tetrazol-5-ylsulphanyl)-1-oxo-2-[(R)- and [(S)-2-oxo-tetrahydro-thien-3-ylcarbamoyl]-1a,2,3,3a,4,6b-hexahydro-1H-2,6a-diazacyclobut[cd]indene-6-carboxylic acid sodium salt] | 
2 | 0.06 | Cn1nnnc1SC1=C(C(=O)O)N2C(=O)[C@@H]3[C@H]2[C@H](C1)CN3C(=O)NC1CCS(=O)(=O)C1 (mixture of isomers) [3(i), (1aS,3aR,6bR)-2-[(R)- and [(S)-1,1-dioxo-tetrahydrothien-3-ylcarbamoyl)-5-(1-methyl-1H-tetrazol-5-ylsulphanyl)-1-oxo-1a,2,3,3a,4,6b-hexahydro-1H-2,6a-diazacyclobut[cd]indene-6-carboxylic acid sodium salt] | 
3 | 0.25 | Cn1nnnc1SC1=C(C(=O)O)N2C(=O)[C@@H]3[C@H]2[C@H](C1)CN3C(=O)Nc1ccc(C(N)=O)cc1 [3(b), (1aS,3aR,6bR)-2-(4-Carbamoyl-phenylcarbamoyl)-5-(1-methyl-1H-tetrazol-5-ylsulphanyl)-1-oxo-1a,2,3,3a,4,6b-hexahydro-1H-2,6a-diazacyclobut[cd]indene-6-carboxylic acid sodium salt] | 
4 | 0.25 | Cn1nnnc1SC1=C(C(=O)O)N2C(=O)[C@@H]3[C@H]2[C@H](C1)CN3C(=O)N[C@H]1CCNC1=O [3(c), (1aS,3aR,6bR)-2-[(S)-2-Oxo-pyrrolidin-3-ylcarbamoyl]-5-(1-methyl-1H-tetrazol-5-ylsulphanyl)-1-oxo-1a,2,3,3a,4,6b-hexahydro-1H-2,6a-diazacyclobut[cd]indene-6-carboxylic acid sodium salt] | 
5 |  | Cc1nnc(SC2=C(C(=O)O)N3C(=O)[C@@H]4[C@H]3[C@H](C2)CN4C(=O)Nc2ccc(O)cc2)s1 [3(j), (1aS,3aR,6bR)-2-(4-Hydroxyphenylcarbamoyl)-5-(5-methyl-1,3,4-thiadiazol-2-ylsulphanyl)-1-oxo-1a,2,3,3a,4,6b-hexahydro-1H-2,6a-diazacyclobut[cd]indene-6-carboxylic acid sodium salt] | MIC E. coli 1346 (E. coli 1346): 32 µg/mL
6 | 0.5 | Cc1nnc(SC2=C(C(=O)O)N3C(=O)[C@@H]4[C@H]3[C@H](C2)CN4C(=O)Nc2ccc(C(N)=O)cc2)s1 [3(k), (1aS,3aR,6bR)-2-(4-Carbamoyl-phenylcarbamoyl)-5-(5-methyl-1,3,4-thiadiazol-2-ylsulphanyl)-1-oxo-1a,2,3,3a,4,6b-hexahydro-1H-2,6a-diazacyclobut[cd]indene-6-carboxylic acid sodium salt] | 
7 | 0.25 | NC(=O)c1ccc(NC(=O)N2C[C@H]3CC(Sc4nnc(N)s4)=C(C(=O)O)N4C(=O)[C@@H]2[C@@H]34)cc1 [3(m), (1aS,3aR,6bR)-5-(5-Amino1,3,4-thiadiazol-2-ylsulphanyl)-2-(4-carbamoyl-amino-phenylcarbamoyl)-1-oxo-1a,2,3,3a,4,6b-hexahydro-1H-2,6a-diazacyclobut]cd]indene-6-carboxylic acid sodium salt] | 
8 | 0.25 | CS(=O)(=O)OC1=C(C(=O)O)N2C(=O)[C@@H]3[C@H]2[C@H](C1)CN3C(=O)N[C@H]1CCNC1=O [9(e), (1aS,3aR,6bR)-5-Methylsulphonyloxy-1-oxo-2-[(S)-2-oxo-pyrrolidin-3-ylcarbamoyl]-1a,2,3,3a,4,6b-hexahydro-1H-2,6a-diazacyclobut[cd]indene-6-carboxylicacid sodium salt] | 
9 |  | CS(=O)(=O)OC1=C(C(=O)[O-])N2C(=O)[C@@H]3[C@H]2[C@H](C1)CN3C(=O)C[n+]1cccc(C(N)=O)c1 [11(a), (1 aS,3aR,6bR)-2-(3-Carbamoyl-pyridin-1-ylioacetyl)-5-methylsulphonyloxy-1-oxo-1a,2,3,3a,4,6b-hexahydro-1H-2,6a-diazacyclobut[cd]indene-6-carboxylate] | MIC E. coli 1346 (E. coli 1346): 32 µg/mL (≈ 71 µM)
10 | 0.25 | COC(=O)CC1=C(C(=O)O)N2C(=O)[C@@H]3[C@H]2[C@H](C1)CN3C(=O)Nc1ccc(O)cc1 [13(b), (1aS,3aR,6bR)-2-(4-Hydroxy-phenylcarbamoyl)-5-methoxycarbonylmethyl-1-oxo-1a,2,3,3a,4,6b-hexahydro-1H-2,6a-diazacyclobut[cd]indene-6-carboxylic add sodium salt] | 
11 |  | Cn1nnnc1SCC1=C(C(=O)O)N2C(=O)[C@@H]3[C@H]2[C@H](C1)CN3C(=O)NCc1cccs1 [18(g), (1aS,3aR,6bR)-1-Oxo-5-(1-methyl-1H-tetrazol-5-yl-sulphanylmethyl)-2-thiophen-2-ylmethylcarbamoyl-1a,2,3,3a,4,6b-hexahydro-1H-2,6a-diazacyclobut[cd]indene-6-carboxylic acid sodium salt] | MIC C. freundii 1982 (D) [1]: 0.5 µg/mL
12 |  | Cn1nnnc1SCC1=C(C(=O)O)N2C(=O)[C@@H]3[C@H]2[C@H](C1)CN3S(=O)(=O)C(F)(F)F [19(f), (1aS,3aR,6bR)-5-(1-Methyl-1H-tetrazol-5-ylsulphanylmethyl)-1-oxo-2-trifluormethylsulphonyl-1a,2,3,3a,4,6b-hexahydro-1H-2,6a-diazacyclobut[cd]indene-6-carboxylic acid sodium salt] | MIC C. freundii 1982 (D) [1]: 4 µg/mL
13 | 1 | O=C([O-])C1=C(C[n+]2ccccc2)C[C@@H]2CN(C(=O)Nc3ccc(O)cc3)[C@@H]3C(=O)N1[C@H]23 [23(a)] | 
14 | 0.25 | NC(=O)c1ccc(NC(=O)N2C[C@H]3CC(C[n+]4ccccc4)=C(C(=O)[O-])N4C(=O)[C@@H]2[C@@H]34)cc1 [23(c), (1aS,3aR,6bR)-2-(4-Carbamoyl-phenylcarbamoyl)-1-oxo-5-(pyridin-1-yliomethyl)-1a,2,3,3a,4,6b-hexahydro-1H-2,6a-diazacyclobut[cd]indene-6-carboxylate] | 
15 |  | COC(=O)CN1C[C@H]2CC(CSc3nnnn3C)=C(C(=O)O)N3C(=O)[C@@H]1[C@@H]23 [61(a), (1aS,3aR,6bR)-2-Methoxycarbonylmethyl-5-(1-methyl-1H-tetrazol-5-ylsulphanylmethyl)-1-oxo-1a,2,3,3a,4,6b-hexahydro-1H-2,6a-diazacyclobut[cd]indene-6-carboxylic acid] | MIC C. freundii 1982 (D) [1]: 0.25 µg/mL
16 |  | Cn1nnnc1SC1=C(C(=O)O)N2C(=O)[C@H]3NC[C@@H](C1)[C@H]32 [Example 2(a), (1aS,3aR,6bR)-5-(1-Methyl-1H-tetrazol-5-ylsulphanyl)-1-oxo-1a,2,3,3a,4,6b-hexahydro-1H-2,6a-diazacyclobut[cd]indene-6-carboxylic acid trifluoroacetate] | MIC E. coli 1346 (E. coli 1346): 4 µg/mL
17 | 2 | O=C(C[n+]1ccccc1)Nc1nnc(SC2=C(C(=O)[O-])N3C(=O)[C@@H]4[C@H]3[C@H](C2)CN4C(=O)Nc2ccc(O)cc2)s1 [Example 5, (1aS,3aR,6bR)-2-(4-Hydroxy-phenylcarbamoyl)-1-oxo-5-[5-(pyridin-1-ylioacetylamino)-1,3,4-thiadiazol-2-ylsulphanyl]-1a,2,3,3a,4,6b-hexahydro-1H-2,6a-diazacyclobut[cd]indene-6-carboxylic acid] | 
18 |  | Cn1nnnc1SCC1=C(C(=O)O)N2C(=O)[C@H]3NC[C@@H](C1)[C@H]32 [Example 15, (1aS,3aR,6bR)-5-(1-Methyl-1H-tetrazol-5-ylsulphanylmethyl)-1-oxo-1a,2,3,3a,4,6b-hexahydro-1H-2,6a-diazacyclobut[cd]indene-6-carboxylic acid trifluoroacetate] | MIC E. coli 1346 (E. coli 1346): 2 µg/mL
19 |  | CC(=O)N1C[C@H]2CC(CSc3nnnn3C)=C(C(=O)O)N3C(=O)[C@@H]1[C@@H]23 [Example 19(a), (1aS,3aR,6bR)-2-Acetyl-5-(1-methyl-1H-tetrazol-5-ylsulphahylmethyl)-1-oxo-1a,2,3,3a,4,6b-hexahydro-1H-2,6a-diazacyclobut[cd]indene-6-carboxylic acid sodium salt] | MIC E. coli 1346 (E. coli 1346): 0.5 µg/mL
20 | 0.5 | C[n+]1ccc(SCC2=C(C(=O)[O-])N3C(=O)[C@@H]4[C@H]3[C@H](C2)CN4C(=O)Nc2ccc(C(N)=O)cc2)cc1 [Example 21, (1aS,3aR,6bR)-2-(4-Carbamoyl-phenylcarbamoyl)-5-(1-methylpyridin-1-yliosulphanylmethyl)-1-oxo-1a,2,3,3a,4,6b-hexahydro-1H-2,6a-diazacyclobut[cd]indene-6-carboxylate] | 

Row | Compound | MIC C. freundii 1982 [1] [µg/mL] | further results
21 | CC(C)(C)OC(=O)N1C[C@H]2CC(OS(C)(=O)=O)=C(C(=O)O)N3C(=O)[C@@H]1[C@@H]23 [10(a), (1aS,3aR,6bR)-2-t-Butoxycarbonyl-5-methylsulphonyloxy-1-oxo-1a,2,3,3a,4,6b-hexahydro-1H-2,6a-diazacyclobut[cd]-indene-6-carboxylic acid sodium salt] | 1 | 
22 | Cc1ccc(S(=O)(=O)OC2=C(C(=O)O)N3C(=O)[C@@H]4[C@H]3[C@H](C2)CN4C(=O)OC(C)(C)C)cc1 [10(d), (1aS,3aR,6bR)-2-t-Butoxycarbonyl-5-(4-methyl-phenylsulphonyloxy)-1-oxo-1a,2,3,3a,4,6b-hexahydro-1H-2,6a-diazacyclobut[cd]indene-6-carboxylic acid sodium salt] | 8 | 
23 | O=C([O-])C1=C(C[n+]2ccccc2)C[C@@H]2CN(C(=O)NCc3cc(O)no3)[C@@H]3C(=O)N1[C@H]23 [23(b), (1aS,3aR,6bR)-2-(3-Hydroxy-isoxazol-5-ylmethylcarbamoyl)-1-oxo-5-(pyridin-1-yliomethyl)-1a,2,3,3a,4,6b-hexahydro-1H-2,6a-diazacyclobut[cd]indene-6-carboxylate] | 1 | 
24 | CC(=O)OCC1=C(C(=O)O)N2C(=O)[C@@H]3[C@H]2[C@H](C1)CN3C(=O)Nc1ccc(O)cc1 [Example 25, (1aS,3aR,6bR)-5-Acetoxymethyl-2-(4-hydroxy-phenylcarbamoyl)-1-oxo-1a,2,3,3a,4,6b-hexahydro-1H-2,6a-diazacyclobut[cd]indene-6-carboxylic acid sodium salt] | 0.25 | 
